Results reported in patent US9260417B2, “Therapeutic methods and compositions involving allosteric kinase inhibition” (AMITECH THERAPEUTIC SOLUTIONS, INC., priority 2010, dated 2016).

Columns and labels:
[1] = system: bFGF induced angiogenesis; assay: Mouse Matrigel model of angiogenesis; assay type: in vivo, mice; settings: 50 mg/kg, ip, bid
Protocol: On day 5 after implantation of the Matrigel, the mice were administered FITC-lectin to label blood vessels. The plugs were removed and visualized by confocal microscopy followed by homogenization and quantification of total FITC. Error bars represent ±SEM. […] Thin sections (5 μm) of the Matrigel plugs were immunostained for vessels with an EC mix (anti-Flk, anti-CD31, anti-VE-Cadherin, and anti-endoglin). […] (FIG. 9C) 6 inhibits phosphorylation of PDGFRβY751 in stromal cells. Thin sections (5 μm) of the Matrigel plugs were immunostained for pericytes and fibroblast with α-smooth muscle actin and for phospho-PDGFRβ Y751 levels. ECs were immunostained with anti-CD31. […] Thin sections (5 μm) of the Matrigel plugs were immunostained for vessels with an EC mix (described as in 9B). TOPRO-3 was used as a nuclear counterstain and TUNEL staining was used to detect apoptotic nuclei. Images were taken using confocal laser scanning microscopy. […]
Female Nu/Nu mice were implanted with growth-factor depleted Matrigel (BD Biosciences, San Jose, Calif.) in the flank containing either PBS or 200 ng of bFGF (Peprotech). […] Five days after matrigel implantation, mice were tail-vein injected with FITC-lectin and plugs were harvested and imaged by confocal microscopy and quantified after homogenization in ice-cold PBS using a fluorescent microplate reader (Tecan Systems, Inc., San Jose, Calif.). […]

CDK8 = CDK8 (Homo sapiens (Human), UniProt P49336); assay: KINOMEscan competitive binding assay; settings: 10 uM
PAK1 = PAK1 (Homo sapiens (Human), UniProt Q13153); assay: KINOMEscan competitive binding assay; settings: 10 uM
Protocol: (§1) For the competitive binding assay, test compounds were screened at 10 μM against 70 diverse kinase targets for competitive binding using the KINOMEscan™ technology (Ambit Biosciences) (Karaman, et al. (2008) Nature biotechnology 26:127-132). 11-point Kd curves were determined for hits identified during the initial screen.

PFTK1 = PFTK1 (Homo sapiens (Human), UniProt O94921); assay: KINOMEscan competitive binding assay; settings: 10 uM
1205 Lu melanoma cells = assay: 1205 Lu melanoma subcutaneous xenograft; assay type: in vivo, mice; settings: 50 mg/kg, bid, ip for 2 weeks
Protocol: Human 1205 Lu melanoma cells, which express BRAF V600E, were subcutaneously implanted into the flank of 6-8 week old female Nu/Nu mice. The tumor cells were trypsinized and resuspendend in 1:1 PBS:growth factor depeleted Matrigel (BD Biosciences) and […] containing 1×10^6 cells was injected into the flank. An excess of mice bearing tumors were utilized and groups of 6 animals were chosen based on the symmetry of the tumor and randomized to give each group an average of 50 mm^3 (day 10). […] The vehicle was 10% HS-15 (known as Solutol, BASF, Inc.) in 3.33% dextrose. Tumor growth was monitored by measuring the tumor length and width with precision calipers every 3 days and calculating tumor volume using the following formula: Tumor volume=0.5*(length)*(width)^2, provided the smaller measurement was utilized as the length.

RAF1 = RAF1 (Homo sapiens (Human), UniProt P04049); assay: KINOMEscan competitive binding assay; settings: 10 uM
ABL1 = ABL1 (Homo sapiens (Human), UniProt P00519); assay: KINOMEscan competitive binding assay; settings: 10 uM
Protocol: as §1

SRPK2 = SRPK2 (Homo sapiens (Human), UniProt P78362); assay: KINOMEscan competitive binding assay; settings: 10 uM
DYRK1B = DYRK1B (Homo sapiens (Human), UniProt Q9Y463); assay: KINOMEscan competitive binding assay; settings: 10 uM
MEK S298 = assay: PAK-mediated MEK S298 phosphorylation in endothelial cells; assay type: cell-based, human; settings: HUVECs stimulated with bFGF or VEGF, 5 μM
Protocol: FIG. 1A-1F illustrate molecular modeling and assay screening to compounds for dual targeting of PDGFRβ and RAF. (FIG. 1A) Molecular modeling of the amino-triazole based small molecules in PDGFRβ and RAF, respectively. […] A homology model of PDGFRβ was created with a structurally-related family member (VEGFR2, PDB 1y6b). […] To autophosphorylation, immunoblots were carried out with a phospho-tyrosine antibody. Membranes were stripped and reprobed for total PDGFRβ levels. […] (FIG. 1D) Structure activity relationships of the amino-triazole based small molecules comparing both PDGFRβ and B-RAF. […] Curves represent the average of 3 separate experiments, error bars represent ±SEM.
Following stimulation with bFGF, VEGFA or PDGF-BB, cells were washed 1× with ice-cold PBS and lysed in RIPA buffer. For the PDGFRβ autophosphorylation assay in VSMCs, 500 μg of protein from lysates was incubated with 3 μg of anti-PDGFRβ (sc-432, Santa Cruz Biotechnology) for 1 h at 4° C. and subsequently tumbled overnight with protein A/G beads (Pierce) for immunoprecipitation. […] HRP conjugated primary or secondary Abs were detected with SuperSignal ECL (Pierce). […]

PKAC-alpha = PKAC-alpha (Homo sapiens (Human), UniProt P17612); assay: KINOMEscan competitive binding assay; settings: 10 uM
B-RAF (V600E) = assay: ERK phosphorylation in 1205Lu melanoma cells expressing B-RAF V600E; assay type: cell-based, human; settings: 10 μM, 1 h

CSc1nc(N)cc(Oc2ccc(-c3nnc(Nc4cccc(C(F)(F)F)c4)[nH]3)cc2)n1 [Compound 6]
p-ERK staining in endothelial cells of Matrigel plugs [1]: suppression in the p-ERK staining | p-PDGFRβY751 signal in stromal compartment of Matrigel plugs [1]: complete suppression | % Control (CDK8): 67% | % Control (PAK1): 100% | % Control (PFTK1): 71% | melanoma tumor growth (1205 Lu melanoma cells): suppresses melanoma tumor growth in vivo | % Control (RAF1): 52% | % Control (ABL1): 100% | % Control (SRPK2): 100% | % Control (DYRK1B): 85% | PAK-mediated phosphorylation on MEK S298 (MEK S298): did not block | % Control (PKAC-alpha): 100% | phosphorylation of ERK T202/Y204 in cells expressing constitutively active B-RAF (V600E) (B-RAF (V600E)): completely disrupted
